Experimental data published in patent US8426385B2 (Hainan Hdeton Science and Technology Co. Ltd., priority 2006, dated 2013).
Converted amounts (≈) assume the structure as drawn.

Legend:
[1] = Inclusion solubilization test (paclitaxel solubility in cyclodextrin solution); format: physicochemical; conditions: 25° C.; for Paclitaxel solubility in cyclodextrin solution: 72 h
Description: A standard curve was plotted by A and concentration C (mg/ml) (A=393.2 C−0.0123; r=0.9998).

[2] = Solid inclusion stability, 5-day acceleration test (HPLC content); format: physicochemical
Experimental: (§1) HPLC chromatographic conditions: chromatographic column ODS C18 (250 mm×4.6 mm); mobile phase: methanol:water:acetonitrile (20:30:50); flow rate: 1.0 ml/min; detection wavelength: 228 nm; detection time: 30.00 min; detection sensitivity: 1.0000 AUFS.
Samples were put in a sealed transparent container and then placed in an illumination box equipped with fluorescent light of 4500±500 LX illumination intensity for 5 days. Sampling inspection analysis was conducted, and the test results were compared with the samples of 0 day.
Samples were placed in a clean sealed container at temperature of 60° C. for 5 days. Sampling inspection analysis was conducted, and the test results were compared with the samples of 0 day.
Samples were placed in a sealed container of constant humidity at temperature of 25° C. and relative humidity of 90±5% for 5 days. Sampling inspection analysis was conducted, and the test results were compared with the samples of 0 day.

[3] = Paclitaxel stability test in solution (HPLC assay); format: physicochemical; conditions: mobile phase pH=6.50, diluted 100 times
Experimental: as §1
The sample solutions had stable chemical properties and the content was basically unchanged.

[4] = system: S180 cells; assay: In vivo anti-tumor effect, S180 solid tumor model; conditions: Kunming mice, intraperitoneal, 7 days, 5 mg/kg dose (printed for the inclusion)
[5] = Animal body weight in the S180 anti-tumor test; conditions: S180 solid tumor, Kunming mice, intraperitoneal, 7 days
[6] = Determination of inclusion stability constant Ka by UV spectrophotometry; format: physicochemical; conditions: 234 nm
Experimental: The inclusion stability constant Ka is used to determine the degree of inclusion and UV spectrophotometry is one of common methods to determine Ka. […] Meanwhile, the changes of Ka after adding ethanol are determined in the test, and the Ka values of different cyclodextrins are shown in Table 1.

[7] = phase solubility studies; cited from earlier work
[8] = aqueous solution; UV spectrum study; cited from earlier work
[9] = about 50% cyclodextrin aqueous solution, pure water; cited from earlier work
[10] = cited from earlier work
[11] = cyclodextrin concentration 31 %

Work on CC(=O)O[C@H]1C(=O)[C@@]2(C)[C@H]([C@H](OC(=O)c3ccccc3)[C@]3(O)C[C@H](OC(=O)[C@H](O)[C@@H](NC(=O)c4ccccc4)c4ccccc4)C(C)=C1C3(C)C)[C@]1(OC(C)=O)CO[C@@H]1C[C@@H]2O [Paclitaxel, (2S,5R,7S,10R,13S)-10,20-bi(acetoxy)-2-benzoyl-oxy-1,7-dihydroxy-9-oxo-5,20-epoxy taxanes-11-ene-13-radical(3S)-3-benzoyl amino-3-phenyl-D-lactic acid ester] yielded a solubility at 72 h ([1]; thermodynamic from solid, pure water, cyclodextrin concentration 0 %) of 0.589 µg/mL (≈ 0.69 µM), a Content ([2]; 0 day) of 99.748% and a Content ([2]; High humidity, 25° C., RH 90±5%, 5 days) of 89.336%. For the same compound, the Content ([2]; High temperature, 60° C., 5 days) was 91.569%, the Content ([2]; Light, 4500±500 LX, 5 days) was 90.346% and the “Content in aqueous solution” value ([3]; 0 h) was 99.745%. The “Content in aqueous solution” value ([3]; 2 h) was 99.700%, the “Content in aqueous solution” value ([3]; 4 h) was 99.577% and the “Content in aqueous solution” value ([3]; 6 h) was 99.648%. For the same compound, the “Content in aqueous solution” value ([3]; 8 h) was 99.608%, the anti-tumor rate [4] was 82.77% and the “effect on animal body weight” value [5] was “reduce the animal body weight”. For the same compound, the “weight loss of animals compared with the inclusion group” value [5] was “greater”.

For OC[C@H]1O[C@@H]2O[C@H]3[C@H](O)[C@@H](O)[C@@H](O[C@H]4[C@H](O)[C@@H](O)[C@@H](O[C@H]5[C@H](O)[C@@H](O)[C@@H](O[C@H]6[C@H](O)[C@@H](O)[C@@H](O[C@H]7[C@H](O)[C@@H](O)[C@@H](O[C@H]8[C@H](O)[C@@H](O)[C@@H](O[C@H]1[C@H](O)[C@H]2O)O[C@@H]8CO)O[C@@H]7CO)O[C@@H]6CO)O[C@@H]5CO)O[C@@H]4CO)O[C@@H]3CO [β-cyclodextrin], the “first-level apparent stability constant Ka of cyclodextrin/paclitaxel” value ([6]; H2O) was 413 M⁻¹.

For OC[C@H]1O[C@@H]2O[C@H]3[C@H](O)[C@@H](O)[C@@H](O[C@H]4[C@H](O)[C@@H](O)[C@@H](O[C@H]5[C@H](O)[C@@H](O)[C@@H](O[C@H]6[C@H](O)[C@@H](O)[C@@H](O[C@H]7[C@H](O)[C@@H](O)[C@@H](O[C@H]8[C@H](O)[C@@H](O)[C@@H](O[C@H]9[C@H](O)[C@@H](O)[C@@H](O[C@H]1[C@H](O)[C@H]2O)O[C@@H]9CO)O[C@@H]8CO)O[C@@H]7CO)O[C@@H]6CO)O[C@@H]5CO)O[C@@H]4CO)O[C@@H]3CO [γ-cyclodextrin], the “dual-inclusion constant with paclitaxel” value [7] is listed as 785 M⁻¹.

In the case of hydroxypropyl-sulfobutyl-β-cyclodextrin, the “first-level apparent stability constant Ka of cyclodextrin/paclitaxel” value ([6]; 60% EtOH) is reported as 19722 M⁻¹, the “first-level apparent stability constant Ka of cyclodextrin/paclitaxel” value ([6]; H2O) is reported as 14121 M⁻¹ and the “Paclitaxel solubility in cyclodextrin solution” value [1, 11] is reported as 11177 µg/mL.

In the case of hydroxypropyl-β-cyclodextrin, the “first-level apparent stability constant Ka of cyclodextrin/paclitaxel” value ([6]; 60% EtOH) is given as 4646 M⁻¹, the “first-level apparent stability constant Ka of cyclodextrin/paclitaxel” value ([6]; H2O) is given as 1325 M⁻¹ and the inclusion constant [8] is given as 3030 M⁻¹. The “dual-inclusion constant with paclitaxel” value [7] was 7965 M^− and the paclitaxel solubility [9] was 3400 µg/mL.

With sulfobutyl-β-cyclodextrin the “first-level apparent stability constant Ka of cyclodextrin/paclitaxel” value ([6]; 60% EtOH) was 9367 M⁻¹, the “first-level apparent stability constant Ka of cyclodextrin/paclitaxel” value ([6]; H2O) was 5396 M⁻¹ and the “Paclitaxel solubility in cyclodextrin solution” value ([1]; cyclodextrin concentration 25 %) was 9324 µg/mL. The “Paclitaxel solubility in cyclodextrin solution” value [1, 11] was 10182 µg/mL and the water-solubility [10] was over 50 g/100 g H2O.
